Like-named read-outs stand apart in the source and are kept apart here.
What was measured:
Amyloid β protein 1-40 = molecular target: T1, Amyloid β protein 1-40 (Homo sapiens, UniProt P05067); assay: Fluorescence Congo Red Method; type: binding; settings: 1 h, compound 10 μM, amyloid β protein 5 μM
T1 construct: Amyloid β protein 1-40 (bought from Peptide Laboratory); purchased Peptide Laboratory

[1] = system: histidine-requiring Salmonella typhimurium TA100 and TA98 strains; assay: Mutagenicity Test (reverse mutation test); type: cell-based; settings: for Relative Activity in the presence of S9Mix / Relative Activity in the absence of S9Mix: reverse mutation test; as to Relative Activity in the presence of S9Mix: key: minus: The number of colonies after reverse mutation did not increase at least two times that of the negative control
Outline: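 Preincubation reverse-mutation test in S. typhimurium TA100 and TA98, with and without S9mix, 20 min at 37° C, then 48 h at 37° C on minimal glucose agar. Six doses (common ratio 2) in DMSO, top dose 5000 μg/plate or growth-inhibiting dose. Revertant colonies counted; positive at ≥2-fold over DMSO control with dose dependency or reproducibility.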

Acute Toxicity Test = type: in vivo; settings: Crj:CD1 male mice, tail vein, observed for 7 days
[2] = Congo red 0.1 μM, read-out: Binding Percentage of Compound in the presence of 0.1 μM CR
[3] = Congo red 0.3 μM, read-out: Binding Percentage of Compound in the presence of 0.3 μM CR
[4] = Congo red 1 μM, read-out: Binding Percentage of Compound in the presence of 1 μM CR
[5] = irrespective of the absence or presence of S9mix

T1 sequence (P05067 672-711): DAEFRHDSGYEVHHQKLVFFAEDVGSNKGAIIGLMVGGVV

Compound | activity at 10 µM (Amyloid β protein 1-40; [2]) | activity at 10 µM (Amyloid β protein 1-40; [3]) | activity at 10 µM (Amyloid β protein 1-40; [4]) | Relative activity (mutagenicity) ([1]; in the presence of S9mix) | Relative Activity in the presence of S9Mix [1] | Relative Activity in the absence of S9Mix [1] | Maximum Permissible Dose (mg/kg, intravenous administration) (Acute Toxicity Test) | Relative activity (mutagenicity) [1, 5]
CNc1ncc(/C=C/c2nc3ccc(OC(CO)CF)cc3o2)s1 (centres unmarked) [THK-761, (E)-6-[(1-fluoromethyl-2-hydroxy)ethoxy]-2-[2-[2-methylaminothiazol-5-yl]ethenyl]-benzoxazole] | 55.2% | 21.6% | 7% | weak | minus | 11995 | ≧10 mg/kg | 
CN(C)c1ncc(/C=C/c2nc3ccc(OC(CO)CF)cc3o2)s1 (centres unmarked) [THK-763, (E)-6-[(1-fluoromethyl-2-hydroxy)ethoxy]-2-[2-[2-dimethylamino-thiazol-5-yl]ethenyl]benzoxazole] | 54.7% | 22.9% | 7.5% | weak | minus | 3058 | ≧10 mg/kg | 
OCC(CF)Oc1ccc2nc(/C=C/c3cnc(N4CCCC4)s3)oc2c1 (centres unmarked) [THK-752, (E)-6-[(1-fluoromethyl-2-hydroxy)ethoxy]-2-[2-[2-(pyrrolidin-1-yl)-thiazol-5-yl]ethenyl]benzoxazole] | 50.4% | 20.6% | 11.3% |  | minus | minus | ≧10 mg/kg | minus
FCCOc1ccc2nc(/C=C/c3cnc(N4CCOCC4)s3)oc2c1 [THK-525, 6-(2-fluoro-ethoxy)-2-[2-(2-morpholin-4-yl-thiazol-5-yl)-vinyl]-benzoxazole] | 61.4% | 24.1% | -6.4% |  | minus | minus | ≧10 mg/kg | minus
OCC(CF)Oc1ccc2nc(/C=C/c3cnc(N4CCOCC4)s3)oc2c1 (centres unmarked) [THK-702, (E)-2-[2-(2-morpholinothiazol-5-yl)ethenyl]-6-[(1-fluoromethyl-2-hydroxy)ethoxy]-benzoxazole] | 74.9% | 37.3% | 0.8% |  | minus | minus | ≧10 mg/kg | minus
